Laboratory results as given in ChEMBL document CHEMBL1201862, “PubChem BioAssay data set” (2004).
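Protocol summary: plate cells (96-well), add compound at 5 concentrations, incubate 48 h, interpolate endpoints linearly. GI50 = concentration required for 50% inhibition of growth.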 The source made the active and inactive calls. No stated cut-off is given here; in the data, active = GI50 up to about 1.1 µM and inactive = higher.

What was measured:
Experiment in all cases: growth of human tumour cells (NCI), 48 h
[1] = test system: NCI-H460
[2] = test system: MDA-MB-435
[3] = test system: K562
[4] = test system: MCF7
[5] = test system: HOP-92
[6] = test system: HCT-15
[7] = test system: UACC-62
[8] = test system: UO-31
[9] = test system: SW-620
[10] = test system: Hs-578T
[11] = test system: OVCAR-5
[12] = test system: NCI-H23
[13] = test system: U-251
[14] = test system: CCRF-CEM
[15] = test system: MDA-N
[16] = test system: DU-145
[17] = test system: SK-MEL-28
[18] = test system: SK-OV-3
[19] = test system: HT-29
[20] = test system: BT-549
[21] = test system: A549
[22] = test system: NCI-H226
[23] = test system: PC-3
[24] = test system: MDA-MB-231
[25] = test system: SF-268
[26] = test system: SNB-19
[27] = test system: OVCAR-3
[28] = test system: LOX IMVI
[29] = test system: HL-60
[30] = test system: SR
[31] = test system: RXF 393
[32] = test system: EKVX
[33] = test system: HCT-116
[34] = test system: HOP-62
[35] = test system: SK-MEL-5
[36] = test system: COLO 205
[37] = test system: OVCAR-8
[38] = test system: MOLT-4
[39] = test system: CAKI-1
[40] = test system: RPMI-8226
[41] = test system: UACC-257
[42] = test system: KM12
[43] = test system: OVCAR-4
[44] = test system: SF-539
[45] = test system: SF-295
[46] = test system: ACHN
[47] = test system: Malme-3M
[48] = test system: TK-10
[49] = test system: SNB-75
[50] = test system: M14
[51] = test system: 786-0
[52] = test system: HCC 2998
[53] = test system: SN12C
[54] = test system: IGROV-1
[55] = test system: T47D
[56] = test system: A498
[57] = test system: NCI/ADR-RES
[58] = test system: SK-MEL-2
[59] = test system: NCI-H522

O=C(O)C1CC(O)CN1 (configuration not stated)
GI50 [1]: > 100 µM (inactive) | GI50 [2]: > 100 µM (inactive) | GI50 [3]: > 100 µM (inactive) | GI50 [4]: > 100 µM (inactive) | GI50 [5]: > 100 µM (inactive) | GI50 [6]: > 100 µM | GI50 [7]: > 100 µM (inactive) | GI50 [8]: > 100 µM (inactive) | GI50 [9]: > 100 µM (inactive) | GI50 [10]: > 100 µM (inactive) | GI50 [11]: > 100 µM (inactive) | GI50 [12]: > 100 µM (inactive) | GI50 [13]: > 100 µM (inactive) | GI50 [14]: > 100 µM (inactive) | GI50 [15]: > 100 µM (inactive) | GI50 [16]: > 100 µM (inactive) | GI50 [17]: > 100 µM (inactive) | GI50 [18]: > 100 µM (inactive) | GI50 [19]: > 100 µM (inactive) | GI50 [20]: > 100 µM (inactive) | GI50 [21]: > 100 µM (inactive) | GI50 [22]: > 100 µM (inactive) | GI50 [23]: > 100 µM (inactive) | GI50 [24]: > 100 µM (inactive) | GI50 [25]: > 100 µM (inactive) | GI50 [26]: > 100 µM (inactive) | GI50 [27]: > 100 µM (inactive) | GI50 [28]: > 100 µM (inactive) | GI50 [29]: > 100 µM (inactive) | GI50 [30]: > 100 µM (inactive) | GI50 [31]: > 100 µM (inactive) | GI50 [32]: > 100 µM (inactive) | GI50 [33]: > 100 µM (inactive) | GI50 [34]: > 100 µM (inactive) | GI50 [35]: > 100 µM (inactive) | GI50 [36]: > 100 µM (inactive) | GI50 [37]: > 100 µM (inactive) | GI50 [38]: > 100 µM (inactive) | GI50 [39]: > 100 µM (inactive) | GI50 [40]: > 100 µM (inactive) | GI50 [41]: > 100 µM (inactive) | GI50 [42]: > 100 µM (inactive) | GI50 [43]: > 100 µM (inactive) | GI50 [44]: > 100 µM (inactive) | GI50 [45]: > 100 µM (inactive) | GI50 [46]: > 100 µM (inactive) | GI50 [47]: > 100 µM (inactive) | GI50 [48]: > 100 µM (inactive) | GI50 [49]: > 100 µM (inactive) | GI50 [50]: > 100 µM (inactive) | GI50 [51]: > 100 µM (inactive) | GI50 [52]: > 100 µM (inactive) | GI50 [53]: > 100 µM (inactive) | GI50 [54]: > 100 µM (inactive) | GI50 [55]: > 100 µM (inactive) | GI50 [56]: > 100 µM (inactive) | GI50 [57]: > 100 µM (inactive) | GI50 [58]: > 100 µM (inactive)

COC(=O)[C@]1(C)CCCC2(C)C3=C(CCC21)CC1(CC3)SCCS1 (some centres not stated)
GI50 [2]: > 10 µM (inactive) | GI50 [3]: > 10 µM (inactive) | GI50 [4]: > 10 µM (inactive) | GI50 [5]: > 10 µM (inactive) | GI50 [6]: > 10 µM | GI50 [59]: > 10 µM (inactive) | GI50 [7]: > 10 µM (inactive) | GI50 [9]: > 10 µM (inactive) | GI50 [10]: > 10 µM (inactive) | GI50 [12]: > 10 µM (inactive) | GI50 [13]: > 10 µM (inactive) | GI50 [14]: > 10 µM (inactive) | GI50 [15]: > 10 µM (inactive) | GI50 [16]: > 10 µM (inactive) | GI50 [17]: > 10 µM (inactive) | GI50 [18]: > 10 µM (inactive) | GI50 [19]: > 10 µM (inactive) | GI50 [20]: > 10 µM (inactive) | GI50 [21]: > 10 µM (inactive) | GI50 [23]: > 10 µM (inactive) | GI50 [24]: > 10 µM (inactive) | GI50 [25]: > 10 µM (inactive) | GI50 [26]: > 10 µM (inactive) | GI50 [27]: > 10 µM (inactive) | GI50 [29]: > 10 µM (inactive) | GI50 [30]: > 10 µM (inactive) | GI50 [32]: > 10 µM (inactive) | GI50 [33]: > 10 µM (inactive) | GI50 [34]: > 10 µM (inactive) | GI50 [35]: > 10 µM (inactive) | GI50 [36]: > 10 µM (inactive) | GI50 [37]: > 10 µM (inactive) | GI50 [38]: > 10 µM (inactive) | GI50 [39]: > 10 µM (inactive) | GI50 [40]: > 10 µM (inactive) | GI50 [41]: > 10 µM (inactive) | GI50 [42]: > 10 µM (inactive) | GI50 [43]: > 10 µM (inactive) | GI50 [44]: > 10 µM (inactive) | GI50 [46]: > 10 µM (inactive) | GI50 [47]: > 10 µM (inactive) | GI50 [48]: > 10 µM (inactive) | GI50 [49]: > 10 µM (inactive) | GI50 [50]: > 10 µM (inactive) | GI50 [51]: > 10 µM (inactive) | GI50 [52]: > 10 µM (inactive) | GI50 [53]: > 10 µM (inactive) | GI50 [54]: > 10 µM (inactive) | GI50 [55]: > 10 µM (inactive) | GI50 [56]: > 10 µM (inactive) | GI50 [57]: > 10 µM (inactive)

O=C(O)C1C2C=CC(O2)C1C(=O)NCc1ccccn1 (configuration not stated)
GI50 [1]: > 100 µM (inactive) | GI50 [2]: > 100 µM (inactive) | GI50 [3]: > 100 µM (inactive) | GI50 [4]: > 100 µM (inactive) | GI50 [5]: > 100 µM (inactive) | GI50 [6]: > 100 µM | GI50 [59]: > 100 µM (inactive) | GI50 [7]: > 100 µM (inactive) | GI50 [8]: > 100 µM (inactive) | GI50 [9]: > 100 µM (inactive) | GI50 [10]: > 100 µM (inactive) | GI50 [11]: > 100 µM (inactive) | GI50 [12]: > 100 µM (inactive) | GI50 [13]: > 100 µM (inactive) | GI50 [14]: > 100 µM (inactive) | GI50 [15]: > 100 µM (inactive) | GI50 [16]: > 100 µM (inactive) | GI50 [17]: > 100 µM (inactive) | GI50 [18]: > 100 µM (inactive) | GI50 [19]: > 100 µM (inactive) | GI50 [20]: > 100 µM (inactive) | GI50 [21]: > 100 µM (inactive) | GI50 [22]: > 100 µM (inactive) | GI50 [23]: > 100 µM (inactive) | GI50 [24]: > 100 µM (inactive) | GI50 [25]: > 100 µM (inactive) | GI50 [26]: > 100 µM (inactive) | GI50 [27]: > 100 µM (inactive) | GI50 [28]: > 100 µM (inactive) | GI50 [29]: > 100 µM (inactive) | GI50 [30]: > 100 µM (inactive) | GI50 [31]: 44.5 µM (inactive) | GI50 [32]: > 100 µM (inactive) | GI50 [33]: > 100 µM (inactive) | GI50 [34]: > 100 µM (inactive) | GI50 [35]: > 100 µM (inactive) | GI50 [36]: > 100 µM (inactive) | GI50 [37]: > 100 µM (inactive) | GI50 [38]: > 100 µM (inactive) | GI50 [39]: > 100 µM (inactive) | GI50 [40]: > 100 µM (inactive) | GI50 [41]: > 100 µM (inactive) | GI50 [42]: > 100 µM (inactive) | GI50 [43]: > 100 µM (inactive) | GI50 [44]: > 100 µM (inactive) | GI50 [45]: > 100 µM (inactive) | GI50 [46]: > 100 µM (inactive) | GI50 [47]: > 100 µM (inactive) | GI50 [48]: > 100 µM (inactive) | GI50 [49]: > 100 µM (inactive) | GI50 [50]: > 100 µM (inactive) | GI50 [51]: > 100 µM (inactive) | GI50 [53]: > 100 µM (inactive) | GI50 [54]: > 100 µM (inactive) | GI50 [55]: > 100 µM (inactive) | GI50 [56]: > 100 µM (inactive) | GI50 [57]: > 100 µM (inactive) | GI50 [58]: > 100 µM (inactive)
